Results on eight compounds are retold here after the NIST ThermoML archive (doi:10.1016/j.jct.2006.09.007).

The conditions of data set [1]: 101.3 kPa, Liquid.
Data set [2] is described as follows: molar heat capacity at constant pressure. The note with it: 298.15 K; 101.33 kPa; Liquid; Flow calorimetry.

Numbers after ± are expanded uncertainties.

Usually mass density stands for mass per unit of volume. Turning to `Cc1ccccc1C` [1,2-dimethylbenzene], the mass density amounted to 875.55 ± 0.47 kg/m3 in data set [1] (298.15 K) and 866.29 ± 0.48 kg/m3 in data set [1] (308.15 K). Further, in data set [2], the “molar heat capacity at constant pressure” value amounted to 187.28 ± 0.39 J/K/mol.

`Cc1cc(C)cc(C)c1` [1,3,5-trimethylbenzene]: the mass density in data set [1] (298.15 K) is 860.9 ± 0.49 kg/m3; in data set [1] (308.15 K) it was 851.88 ± 0.5 kg/m3. In addition, the “molar heat capacity at constant pressure” value in data set [2] is given as 207.43 ± 0.42 J/K/mol.

As to `Cc1cccc(C)c1` [1,3-dimethylbenzene], the figures for the mass density in data set [1] (298.15 K) and in data set [1] (308.15 K) were 859.68 ± 0.49 kg/m3 and 850.01 ± 0.5 kg/m3, respectively. For the same compound, the “molar heat capacity at constant pressure” value in data set [2] is listed as 181.38 ± 0.37 J/K/mol.

Take `Cc1ccc(C)cc1` [1,4-dimethylbenzene]: the mass density in data set [1] (298.15 K) is on record as 856.48 ± 0.49 kg/m3; in data set [1] (308.15 K), 846.98 ± 0.51 kg/m3. Further, in data set [2], the “molar heat capacity at constant pressure” value was determined as 181.73 ± 0.37 J/K/mol.

Regarding `COc1ccccc1` [anisole], the mass density in data set [1] (298.15 K) is recorded as 988.98 ± 0.34 kg/m3; in data set [1] (308.15 K), 978.7 ± 0.35 kg/m3. In data set [2], the “molar heat capacity at constant pressure” value is given as 191.54 ± 0.39 J/K/mol.

`N#Cc1ccccc1` [benzonitrile]: the mass density in data set [1] (298.15 K) is 1000.25 ± 0.13 kg/m3; in data set [1] (308.15 K), 990.67 ± 0.15 kg/m3. The “molar heat capacity at constant pressure” value in data set [2] turned out to be 166.41 ± 0.34 J/K/mol.

In the case of `CCc1ccccc1` [ethylbenzene], the mass density is 862.41 ± 0.49 kg/m3 in data set [1] (298.15 K) and 852.72 ± 0.5 kg/m3 in data set [1] (308.15 K). The “molar heat capacity at constant pressure” value in data set [2] is recorded as 185.44 ± 0.38 J/K/mol.

`CC(C)c1ccccc1` [isopropylbenzene]: the mass density stood at 857.41 ± 0.49 kg/m3 in data set [1] (298.15 K) and 848.26 ± 0.5 kg/m3 in data set [1] (308.15 K). In addition, in data set [2], the “molar heat capacity at constant pressure” value amounted to 214.75 ± 0.44 J/K/mol.
